Measurements: paper PMC4457528, “Identification of Novel Small Molecule Inhibitors of Oncogenic RET Kinase” (PLoS ONE, 2015)
Where two headings read alike, the source gives them in different places.

How the values were obtained:
Test in all cases: KinomeScan kinase panel, single concentration 10 µM
Type in all cases: binding
KinomeScan kinase panel [1] = target: T1, KinomeScan kinase panel (Homo sapiens, UniProt O00329); settings: PIK3CD, 10 µM; read-out: score (%)
T1 construct: purchased DiscoveRx (KinomeScan)
T1 sequence (O00329 1-1044): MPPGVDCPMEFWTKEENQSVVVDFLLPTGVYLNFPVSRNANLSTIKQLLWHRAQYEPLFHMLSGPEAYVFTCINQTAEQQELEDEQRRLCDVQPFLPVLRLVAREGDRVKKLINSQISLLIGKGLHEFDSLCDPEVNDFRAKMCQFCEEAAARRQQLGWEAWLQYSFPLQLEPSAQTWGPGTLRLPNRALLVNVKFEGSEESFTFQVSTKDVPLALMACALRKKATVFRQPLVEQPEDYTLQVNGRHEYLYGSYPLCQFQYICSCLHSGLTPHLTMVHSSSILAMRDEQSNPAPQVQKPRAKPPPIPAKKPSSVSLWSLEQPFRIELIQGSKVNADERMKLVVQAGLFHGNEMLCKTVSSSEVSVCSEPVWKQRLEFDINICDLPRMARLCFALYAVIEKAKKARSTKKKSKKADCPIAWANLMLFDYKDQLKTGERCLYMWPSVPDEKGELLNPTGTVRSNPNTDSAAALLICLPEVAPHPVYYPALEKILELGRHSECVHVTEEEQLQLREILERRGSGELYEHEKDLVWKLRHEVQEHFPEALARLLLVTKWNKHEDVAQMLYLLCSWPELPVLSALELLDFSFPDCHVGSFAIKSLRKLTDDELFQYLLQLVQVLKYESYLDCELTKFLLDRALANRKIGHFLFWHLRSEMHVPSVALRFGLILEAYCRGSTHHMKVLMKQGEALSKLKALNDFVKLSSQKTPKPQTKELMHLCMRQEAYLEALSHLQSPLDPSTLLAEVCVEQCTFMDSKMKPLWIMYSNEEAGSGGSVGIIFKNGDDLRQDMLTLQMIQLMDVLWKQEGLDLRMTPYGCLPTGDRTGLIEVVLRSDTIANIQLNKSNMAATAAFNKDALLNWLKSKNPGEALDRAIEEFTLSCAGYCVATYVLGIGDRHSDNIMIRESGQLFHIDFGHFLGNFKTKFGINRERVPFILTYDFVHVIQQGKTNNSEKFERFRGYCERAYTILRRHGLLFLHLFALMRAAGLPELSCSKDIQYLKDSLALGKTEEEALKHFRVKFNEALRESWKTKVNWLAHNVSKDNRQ

KinomeScan kinase panel [2] = target: T2, KinomeScan kinase panel (Homo sapiens, UniProt P00519); settings: read-out: score (%)
T2 construct: purchased DiscoveRx (KinomeScan)
T2 sequence (P00519 whole entry): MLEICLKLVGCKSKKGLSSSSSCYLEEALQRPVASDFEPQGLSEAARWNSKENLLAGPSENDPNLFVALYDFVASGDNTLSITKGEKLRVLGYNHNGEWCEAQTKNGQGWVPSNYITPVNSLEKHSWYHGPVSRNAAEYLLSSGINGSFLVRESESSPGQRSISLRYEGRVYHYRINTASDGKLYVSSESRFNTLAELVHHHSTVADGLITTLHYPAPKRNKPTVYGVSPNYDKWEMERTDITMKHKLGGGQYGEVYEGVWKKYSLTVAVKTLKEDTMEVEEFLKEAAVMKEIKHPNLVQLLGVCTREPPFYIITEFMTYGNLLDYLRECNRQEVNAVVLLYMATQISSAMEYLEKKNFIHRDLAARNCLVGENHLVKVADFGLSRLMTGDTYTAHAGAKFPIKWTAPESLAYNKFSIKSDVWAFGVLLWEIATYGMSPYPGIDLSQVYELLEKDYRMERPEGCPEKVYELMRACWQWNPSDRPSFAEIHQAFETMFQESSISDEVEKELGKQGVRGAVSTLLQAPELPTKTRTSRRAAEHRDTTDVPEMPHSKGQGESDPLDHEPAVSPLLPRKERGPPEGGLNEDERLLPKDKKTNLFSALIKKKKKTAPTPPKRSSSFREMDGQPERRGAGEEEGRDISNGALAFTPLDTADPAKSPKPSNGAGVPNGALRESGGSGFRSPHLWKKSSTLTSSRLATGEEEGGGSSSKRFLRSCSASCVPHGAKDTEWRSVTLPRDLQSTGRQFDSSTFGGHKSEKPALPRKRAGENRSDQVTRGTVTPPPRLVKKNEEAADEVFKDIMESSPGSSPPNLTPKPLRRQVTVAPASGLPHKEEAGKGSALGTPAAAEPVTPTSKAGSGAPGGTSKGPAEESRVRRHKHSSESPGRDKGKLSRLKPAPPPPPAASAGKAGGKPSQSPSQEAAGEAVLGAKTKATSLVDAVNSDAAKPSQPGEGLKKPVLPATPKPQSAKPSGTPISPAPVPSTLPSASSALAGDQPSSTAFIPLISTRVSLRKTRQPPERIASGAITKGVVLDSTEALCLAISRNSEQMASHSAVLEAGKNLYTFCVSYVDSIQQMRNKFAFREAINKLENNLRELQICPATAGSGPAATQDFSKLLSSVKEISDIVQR

KinomeScan kinase panel [3] = target: T3, KinomeScan kinase panel (Homo sapiens, UniProt P00519, F317L); settings: 10 µM, read-out: score (%)
T3 construct: purchased DiscoveRx (KinomeScan)
T3 sequence (P00519 whole entry F317L): as the sequence (P00519 whole entry) above, with F317L counted along it

KinomeScan kinase panel [4] = target: T4, KinomeScan kinase panel (Homo sapiens, UniProt P07333); settings: CSF1R, 10 µM; read-out: score (%)
T4 construct: purchased DiscoveRx (KinomeScan)

KinomeScan kinase panel [5] = target: T5, KinomeScan kinase panel (Homo sapiens, UniProt P42336); settings: PIK3CA, 10 µM; read-out: score (%)
T5 construct: purchased DiscoveRx (KinomeScan)
T5 sequence (P42336 whole entry): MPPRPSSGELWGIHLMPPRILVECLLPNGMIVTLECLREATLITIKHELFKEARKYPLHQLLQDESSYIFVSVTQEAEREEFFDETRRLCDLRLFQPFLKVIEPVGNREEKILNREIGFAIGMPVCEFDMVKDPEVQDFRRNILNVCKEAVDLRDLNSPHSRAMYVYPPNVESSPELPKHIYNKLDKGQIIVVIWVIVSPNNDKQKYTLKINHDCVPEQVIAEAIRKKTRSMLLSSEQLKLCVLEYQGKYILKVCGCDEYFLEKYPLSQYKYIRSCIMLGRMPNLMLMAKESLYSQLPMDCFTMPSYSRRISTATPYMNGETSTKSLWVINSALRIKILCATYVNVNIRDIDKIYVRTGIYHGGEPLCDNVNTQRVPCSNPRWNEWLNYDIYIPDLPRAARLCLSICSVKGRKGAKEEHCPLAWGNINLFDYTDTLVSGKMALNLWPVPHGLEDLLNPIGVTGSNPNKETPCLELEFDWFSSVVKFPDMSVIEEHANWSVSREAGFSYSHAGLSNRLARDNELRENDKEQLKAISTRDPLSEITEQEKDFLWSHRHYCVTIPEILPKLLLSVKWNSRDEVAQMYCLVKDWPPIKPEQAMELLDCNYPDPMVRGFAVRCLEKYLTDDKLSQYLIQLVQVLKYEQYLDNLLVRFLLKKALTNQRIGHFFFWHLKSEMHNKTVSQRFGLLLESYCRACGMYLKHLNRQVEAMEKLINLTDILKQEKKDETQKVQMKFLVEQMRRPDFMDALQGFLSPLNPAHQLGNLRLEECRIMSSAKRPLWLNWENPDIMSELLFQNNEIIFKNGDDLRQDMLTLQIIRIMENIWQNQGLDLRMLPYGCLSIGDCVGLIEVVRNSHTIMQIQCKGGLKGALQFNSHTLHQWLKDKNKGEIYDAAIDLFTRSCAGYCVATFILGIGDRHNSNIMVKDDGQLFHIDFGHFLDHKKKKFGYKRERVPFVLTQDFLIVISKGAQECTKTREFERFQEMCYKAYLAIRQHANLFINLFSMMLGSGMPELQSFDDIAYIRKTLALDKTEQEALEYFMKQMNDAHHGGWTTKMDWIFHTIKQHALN

KinomeScan kinase panel [6] = target: T6, KinomeScan kinase panel (Homo sapiens, UniProt P78362); settings: read-out: score (%)
T6 construct: purchased DiscoveRx (KinomeScan)
T6 sequence (P78362 whole entry): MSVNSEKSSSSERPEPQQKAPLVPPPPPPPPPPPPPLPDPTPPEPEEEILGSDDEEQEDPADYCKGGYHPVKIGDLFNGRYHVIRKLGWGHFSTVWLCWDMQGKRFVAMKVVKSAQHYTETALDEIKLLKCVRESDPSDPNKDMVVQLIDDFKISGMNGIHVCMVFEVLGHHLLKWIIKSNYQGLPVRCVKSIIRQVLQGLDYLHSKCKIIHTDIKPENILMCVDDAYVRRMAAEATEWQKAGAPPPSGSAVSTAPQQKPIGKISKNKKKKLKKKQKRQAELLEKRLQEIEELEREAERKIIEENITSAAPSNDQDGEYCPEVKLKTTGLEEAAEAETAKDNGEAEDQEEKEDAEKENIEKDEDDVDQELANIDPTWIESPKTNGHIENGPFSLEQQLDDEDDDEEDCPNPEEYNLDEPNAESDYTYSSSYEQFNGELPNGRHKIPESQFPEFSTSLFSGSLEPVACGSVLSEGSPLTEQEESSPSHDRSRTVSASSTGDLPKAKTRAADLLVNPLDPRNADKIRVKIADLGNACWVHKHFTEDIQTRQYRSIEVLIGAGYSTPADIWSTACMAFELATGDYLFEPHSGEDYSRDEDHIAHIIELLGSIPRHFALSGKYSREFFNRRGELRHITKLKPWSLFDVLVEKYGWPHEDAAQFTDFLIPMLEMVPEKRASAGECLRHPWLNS

KinomeScan kinase panel [7] = target: T7, KinomeScan kinase panel (Homo sapiens, UniProt Q04759); settings: 10 µM, read-out: score (%)
T7 construct: purchased DiscoveRx (KinomeScan)
T7 sequence (Q04759 whole entry): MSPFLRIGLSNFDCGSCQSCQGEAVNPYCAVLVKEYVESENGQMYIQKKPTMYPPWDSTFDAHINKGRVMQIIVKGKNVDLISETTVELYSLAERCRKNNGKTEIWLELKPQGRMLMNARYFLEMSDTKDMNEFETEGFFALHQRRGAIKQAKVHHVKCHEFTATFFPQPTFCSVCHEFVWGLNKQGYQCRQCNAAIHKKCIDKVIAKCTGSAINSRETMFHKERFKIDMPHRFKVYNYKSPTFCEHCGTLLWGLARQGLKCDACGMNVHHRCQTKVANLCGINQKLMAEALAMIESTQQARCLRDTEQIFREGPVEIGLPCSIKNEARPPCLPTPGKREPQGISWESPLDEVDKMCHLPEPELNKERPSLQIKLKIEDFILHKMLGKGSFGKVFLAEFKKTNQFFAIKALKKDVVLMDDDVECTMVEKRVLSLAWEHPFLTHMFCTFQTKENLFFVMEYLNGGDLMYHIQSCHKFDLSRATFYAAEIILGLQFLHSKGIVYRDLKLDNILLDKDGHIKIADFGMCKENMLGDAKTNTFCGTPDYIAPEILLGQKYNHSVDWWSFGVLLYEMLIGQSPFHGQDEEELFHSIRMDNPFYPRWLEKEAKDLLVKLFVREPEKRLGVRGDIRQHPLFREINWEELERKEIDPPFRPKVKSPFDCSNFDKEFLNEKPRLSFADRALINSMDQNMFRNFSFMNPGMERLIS

KinomeScan kinase panel [8] = target: T8, KinomeScan kinase panel (Homo sapiens, UniProt Q96SB4); settings: read-out: score (%)
T8 construct: purchased DiscoveRx (KinomeScan)
T8 sequence (Q96SB4 whole entry): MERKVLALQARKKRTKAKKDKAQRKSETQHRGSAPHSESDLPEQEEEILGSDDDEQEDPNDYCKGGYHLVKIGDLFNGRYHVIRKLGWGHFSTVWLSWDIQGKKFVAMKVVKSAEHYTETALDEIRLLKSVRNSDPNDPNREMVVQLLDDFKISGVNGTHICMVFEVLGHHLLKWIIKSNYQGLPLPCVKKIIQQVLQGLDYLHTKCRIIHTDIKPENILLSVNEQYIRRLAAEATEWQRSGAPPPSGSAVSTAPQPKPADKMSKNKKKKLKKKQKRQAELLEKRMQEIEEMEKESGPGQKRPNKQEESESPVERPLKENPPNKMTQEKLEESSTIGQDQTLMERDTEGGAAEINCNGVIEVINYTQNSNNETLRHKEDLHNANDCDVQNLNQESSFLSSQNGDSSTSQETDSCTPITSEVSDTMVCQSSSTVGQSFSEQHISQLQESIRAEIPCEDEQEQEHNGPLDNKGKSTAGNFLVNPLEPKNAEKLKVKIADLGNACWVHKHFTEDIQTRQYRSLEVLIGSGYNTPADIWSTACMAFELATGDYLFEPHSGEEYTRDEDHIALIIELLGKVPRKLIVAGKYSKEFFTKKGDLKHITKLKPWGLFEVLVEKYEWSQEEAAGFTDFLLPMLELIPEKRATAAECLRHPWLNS

KinomeScan kinase panel [9] = target: T9, KinomeScan kinase panel (Homo sapiens, UniProt Q9UK32); settings: 10 µM
T9 construct: purchased DiscoveRx (KinomeScan)
T9 sequence (Q9UK32 whole entry): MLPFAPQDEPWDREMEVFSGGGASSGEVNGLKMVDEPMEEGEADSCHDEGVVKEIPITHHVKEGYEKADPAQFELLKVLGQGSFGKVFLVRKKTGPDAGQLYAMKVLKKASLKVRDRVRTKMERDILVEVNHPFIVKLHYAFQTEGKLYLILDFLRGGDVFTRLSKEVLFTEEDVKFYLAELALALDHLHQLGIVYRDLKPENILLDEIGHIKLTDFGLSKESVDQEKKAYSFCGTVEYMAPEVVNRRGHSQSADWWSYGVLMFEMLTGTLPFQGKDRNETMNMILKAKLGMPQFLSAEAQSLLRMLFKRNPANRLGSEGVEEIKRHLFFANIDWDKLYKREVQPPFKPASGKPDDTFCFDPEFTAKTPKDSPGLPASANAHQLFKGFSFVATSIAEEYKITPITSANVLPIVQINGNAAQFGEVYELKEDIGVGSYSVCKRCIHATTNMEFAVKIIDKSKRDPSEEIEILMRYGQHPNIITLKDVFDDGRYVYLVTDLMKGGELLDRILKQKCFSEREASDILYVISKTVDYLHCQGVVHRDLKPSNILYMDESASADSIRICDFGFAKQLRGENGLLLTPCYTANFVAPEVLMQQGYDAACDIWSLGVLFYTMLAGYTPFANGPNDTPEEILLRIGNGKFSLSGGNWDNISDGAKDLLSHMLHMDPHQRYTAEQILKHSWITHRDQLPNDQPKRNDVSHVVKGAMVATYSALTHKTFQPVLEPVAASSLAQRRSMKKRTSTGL

KinomeScan kinase panel [10] = target: T10, KinomeScan kinase panel (Homo sapiens, UniProt Q9UQ88); settings: CDC2L2, 10 µM; read-out: score (%)
T10 construct: purchased DiscoveRx (KinomeScan)
T10 sequence (Q9UQ88 1-783): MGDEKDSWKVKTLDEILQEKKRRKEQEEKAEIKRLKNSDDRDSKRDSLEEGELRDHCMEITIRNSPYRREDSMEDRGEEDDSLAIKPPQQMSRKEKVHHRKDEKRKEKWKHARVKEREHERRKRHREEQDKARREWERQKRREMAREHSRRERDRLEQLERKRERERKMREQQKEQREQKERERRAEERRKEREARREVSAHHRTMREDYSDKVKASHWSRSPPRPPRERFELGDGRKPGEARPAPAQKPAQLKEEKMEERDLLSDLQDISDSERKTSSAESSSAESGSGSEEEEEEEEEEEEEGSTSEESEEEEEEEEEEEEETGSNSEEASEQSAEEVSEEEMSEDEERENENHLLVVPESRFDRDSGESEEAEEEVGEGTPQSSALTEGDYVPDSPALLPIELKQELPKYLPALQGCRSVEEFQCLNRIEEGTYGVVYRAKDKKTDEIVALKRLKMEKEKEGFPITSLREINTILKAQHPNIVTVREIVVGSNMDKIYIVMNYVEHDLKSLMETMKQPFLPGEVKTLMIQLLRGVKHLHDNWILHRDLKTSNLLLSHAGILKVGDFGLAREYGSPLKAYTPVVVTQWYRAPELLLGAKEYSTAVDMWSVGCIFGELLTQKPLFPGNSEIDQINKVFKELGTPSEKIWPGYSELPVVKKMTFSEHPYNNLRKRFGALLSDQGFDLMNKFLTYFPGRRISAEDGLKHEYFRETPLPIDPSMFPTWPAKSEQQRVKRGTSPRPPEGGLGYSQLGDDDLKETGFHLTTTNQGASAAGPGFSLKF

SMILES | remaining binding at 10 µM (KinomeScan kinase panel [1]) [%] | remaining binding at 10 µM (KinomeScan kinase panel [2]; ABL1, 10 µM) [%] | remaining binding at 10 µM (KinomeScan kinase panel [3]; ABL1(F317L)) [%] | remaining binding at 10 µM (KinomeScan kinase panel [4]) [%] | remaining binding at 10 µM (KinomeScan kinase panel [5]) [%] | remaining binding at 10 µM (KinomeScan kinase panel [6]; kinase SRPK2, 10 µM) [%] | remaining binding at 10 µM (KinomeScan kinase panel [7]; PRKCQ) [%] | remaining binding at 10 µM (KinomeScan kinase panel [8]; kinase SRPK1, 10 µM) [%] | remaining binding at 10 µM (KinomeScan kinase panel [10]) [%] | further results
CCN1CCN(Cc2ccc(NC(=O)c3ccc(C)c(NC(=O)c4cncc(-c5cccs5)c4)c3)cc2C(F)(F)F)CC1 [ALW-II-41-27] | > 30 | 0.05 | 0.2 | 0 | > 30 | > 30 | 22 | > 30 | 1.8 | score (%) (KinomeScan kinase panel [9]; kinase RPS6KA6(Kin.Dom.1-N-terminal)): nb (Hits values higher than 30% were considered negative (no binding: nb)); score (%) (KinomeScan kinase panel [9]; kinase RPS6KA6(Kin.Dom.2-C-terminal)): nb (Hits values higher than 30% were considered negative (no binding: nb))
CCN1CCN(Cc2ccc(NC(=O)c3ccc(C)c(/C=C/c4cnc5[nH]ccc5c4Cl)c3)cc2C(F)(F)F)CC1 [HG-6-63-01, (E)-3-(2-(4-chloro-1H-pyrrolo[2,3-b]pyridin-5-yl)vinyl)-N-(4-((4-ethylpiperazin-1-yl)methyl)-3-(trifluoromethyl)phenyl)-4-methylbenzamide] | > 30 | 0.3 | 0.1 | 0 | > 30 | – | > 30 | – | 17 | remaining binding at 10 µM (KinomeScan kinase panel [6]; SRPK2, 10 µM): 28%; remaining binding at 10 µM (KinomeScan kinase panel [8]; SRPK1, 10 µM): 0.25%; score (%) (KinomeScan kinase panel [9]; RPS6KA6(Kin.Dom.1)): nb (Hits values higher than 30% were considered negative (no binding: nb)); score (%) (KinomeScan kinase panel [9]; RPS6KA6(Kin.Dom.2)): nb (Hits values higher than 30% were considered negative (no binding: nb))
CCN1CCN(Cc2ccc(NC(=O)c3ccc(C)c(C#Cc4cccnc4)c3)cc2C(F)(F)F)CC1 [XMD15-44] | 76 | – | – | 0 | 100 | 81 | – | 100 | 1.6 | remaining binding at 10 µM (KinomeScan kinase panel [2]; ABL1-nonphosphorylated, 10 µM): 0%; remaining binding at 10 µM (KinomeScan kinase panel [2]; ABL1-phosphorylated, 10 µM): 0%; remaining binding at 10 µM (KinomeScan kinase panel [3]; ABL1(F317L)-nonphosphorylated): 0%; remaining binding at 10 µM (KinomeScan kinase panel [3]; ABL1(F317L)-phosphorylated): 0.85%; remaining binding at 10 µM (KinomeScan kinase panel [7]; kinase PRKCQ): 55%; score (%) (KinomeScan kinase panel [9]; kinase RSK4(Kin.Dom.1-N-terminal)): 47%; score (%) (KinomeScan kinase panel [9]; kinase RSK4(Kin.Dom.2-C-terminal)): 6.8%
